Experiments:
[1] = target: Growth factor receptor-bound protein 2 (Homo sapiens, UniProt P62993); assay: Inhibition of GST tagged Grb2 SH2 domain binding to Shc-derived [3H]phosphopeptide
[2] = Growth inhibition of mouse B104-1-1 cells after 48 hrs by WST1 assay; type: cell-based
[3] = target: Growth factor receptor-bound protein 2 (Mus musculus) (UniProt Q60631); assay: Inhibition of Shc-Grb2 interaction in mouse B104-1-1 cells by immunoblotting; type: cell-based; design: scale not given: the % may be the effect or the level left
Sequence of Growth factor receptor-bound protein 2 (Mus musculus) (Q60631 whole entry): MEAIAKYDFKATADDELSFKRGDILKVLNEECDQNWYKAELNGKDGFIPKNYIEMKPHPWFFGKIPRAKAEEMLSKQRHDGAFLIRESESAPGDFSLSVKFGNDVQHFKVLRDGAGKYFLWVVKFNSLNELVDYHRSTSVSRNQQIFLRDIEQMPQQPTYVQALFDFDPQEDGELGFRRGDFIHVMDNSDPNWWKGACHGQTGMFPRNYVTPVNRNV

Sequence of Growth factor receptor-bound protein 2 (P62993 whole entry, the tested form may be a part): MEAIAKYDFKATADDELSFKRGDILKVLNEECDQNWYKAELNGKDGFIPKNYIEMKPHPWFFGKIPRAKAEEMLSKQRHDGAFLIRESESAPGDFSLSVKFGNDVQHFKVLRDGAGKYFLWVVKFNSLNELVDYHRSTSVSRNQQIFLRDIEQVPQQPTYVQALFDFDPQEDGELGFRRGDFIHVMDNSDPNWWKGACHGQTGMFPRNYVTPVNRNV

Question: With `CCC(C)/C=C(C)/C=C/c1cc2c(cn1)=C(OC)[C@@](C)(OC(C)=O)C(=O)C=2Cl` (stereo partly drawn) as the molecule, how does the IC50 [1] read?
Answer: Its IC50 is 5.3 µM.

Question: What about the GI50 at 48 h [2] of the same molecule?
Answer: The GI50 at 48 h was 50 µM.

Question: What about the Activity [3] of the same molecule?
Answer: Its Activity is 50%.

Source: ChEMBL document CHEMBL1155596, “8-O-Methylsclerotiorinamine, antagonist of the Grb2-SH2 domain, isolated from Penicillium multicolor” (J Nat Prod, 2000)
